Source: patent US20120142690A1, “Substituted piperidines” (BAYER PHARMA AKTIENGESELLSCHAFT, priority 2009, published 2012)

What follows are compounds tested against T1, human protease activated receptor 1 (PAR-1) (Homo sapiens, UniProt P25116) (assay: Cellular functional in vitro test (aequorin luminescence, PAR-1 test cell)). Conditions: recombinant HEK293-derived cell line expressing aequorin; PAR-1 agonist at EC50; calcium-dependent luminescence.
T1 construct: the cell stably expresses the endogenous human PAR-1 receptor; endogenous in cells; host or cells: HEK293-derived recombinant cell line that constitutively expresses mitochondrial aequorin
T1 sequence (P25116 22-425): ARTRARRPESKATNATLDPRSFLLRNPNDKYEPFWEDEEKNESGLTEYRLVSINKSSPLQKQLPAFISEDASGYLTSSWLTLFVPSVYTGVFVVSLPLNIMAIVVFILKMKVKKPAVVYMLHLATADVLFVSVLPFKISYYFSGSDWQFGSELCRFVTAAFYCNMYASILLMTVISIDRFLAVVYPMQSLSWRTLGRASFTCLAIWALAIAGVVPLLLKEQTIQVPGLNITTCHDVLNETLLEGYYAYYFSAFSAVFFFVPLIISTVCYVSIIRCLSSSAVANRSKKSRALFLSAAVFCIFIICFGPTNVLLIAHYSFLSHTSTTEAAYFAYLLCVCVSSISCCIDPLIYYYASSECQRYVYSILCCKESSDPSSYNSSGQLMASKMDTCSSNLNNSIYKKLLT
Type: cell-based
Text: 1.a) Cellular Functional In Vitro Test
A recombinant cell line is used to identify antagonists of the human protease activated receptor 1 (PAR-1) and to quantify the activity of the substances described herein. The cell is originally derived from a human embryonal kidney cell (HEK293; ATCC: American Type Culture Collection, Manassas, Va. 20108, USA). The test cell line constitutively expresses a modified form of the calcium-sensitive photoprotein acquorin which, after reconstitution with the cofactor coelenterazine, emits light when the free calcium concentration in the inner mitochondrial compartment is increased (Rizzuto R, Simpson A W, Brini M, Pozzan T.; Nature 1992, 358, 325-327). Additionally, the cell stably expresses the endogenous human PAR-1 receptor and the endogenous purinergic receptor P2Y2. The resulting PAR-1 test cell responds to stimulation of the endogenous PAR-1 or P2Y2 receptor with an intracellular release of calcium ions, which can be quantified through the resulting acquorin luminescence with a suitable luminometer (Milligan G, Marshall F, Rees S, Trends in Pharmacological Sciences 1996, 17, 235-237). […]
Test procedure: The cells are plated out two days (48 h) before the test in culture medium (DMEM F12, supplemented with 10% FCS, 2 mM glutamine, 20 mM HEPES, 1.4 mM pyruvate, 0.1 mg/ml gentamycin, 0.15% Na bicarbonate; BioWhittaker Cat.#BE04-687Q; B-4800 Verviers, Belgium) in 384-well microtitre plates and kept in a cell incubator (96% atmospheric humidity, 5% v/v CO2, 37° C.). […] The test substances are then pipetted onto the microtitre plate, and 5 minutes after the transfer of the test substances into the wells of the microtitre plate the plate is transferred into the luminometer, a PAR-1 agonist concentration which corresponds to EC50 is added and the resulting light signal is immediately measured in the luminometer. To distinguish an antagonist substance action from a toxic action, the endogenous purinergic receptor is immediately subsequently activated with agonist (ATP, final concentration 10 μM) and the resulting light signal is measured.

| IC50 [nM] | SMILES |
| --- | --- |
| 1.9 | COc1ccccc1-c1ccc(/C=C/C2CC(c3ccc(C(F)(F)F)cc3)CN(C(=O)N3CCOCC3)C2)nc1 (racemic) [Example 7, (3-{(E)-2-[5-(2-Methoxyphenyl)pyridin-2-yl]vinyl}-5-[4-(trifluoromethyl)phenyl]piperidin-1-yl)-(morpholin-4-yl)methanone] |
| 2.2 | O=C(N1CCOCC1)N1CC(/C=C/c2ccc(-c3cccc(Cl)c3)cn2)CC(c2ccc(C(F)(F)F)cc2)C1 (racemic) [Example 9, (3-{(E)-2-[5-(3-Chlorophenyl)pyridin-2-yl]vinyl}-5-[4-(trifluoromethyl)phenyl]piperidin-1-yl)-(morpholin-4-yl)methanone] |
| 2 | O=C(N1CCOCC1)N1CC(/C=C/c2ccc(-c3cccc(C(F)(F)F)c3)cn2)CC(c2ccc(C(F)(F)F)cc2)C1 (single isomer, unassigned) [Example 5, Morpholin-4-yl{3-[4-(trifluoromethyl)phenyl]-5-[(E)-2-{5-[3-(trifluoromethyl)phenyl]pyridin-2-yl}vinyl]piperidin-1-yl}methanone] |
